Measurements published in the OligoGym collection.
After the bases stand the sugars from the 5' end (letter, count) and the backbone: PS all phosphorothioate, else s phosphorothioate and o phosphodiester by linkage. Methylation of C is not given here. e = 2'-O-(2-methoxyethyl) (MOE); k = constrained ethyl (cEt); d = 2'-deoxy (DNA); m = 2'-O-methyl

Molecular target: HSD17B13
Settings: ASO, HepaRG

Sequence	target mRNA inhibition (1 µM)	other results
TGTCTAAACATCTCTG (sugars k3 d10 k3, PS)	58%	
TGTCTAAACATCTCTG (sugars kkdddddddddkekek, PS)	59%	
TGTCTCCAATACAGGC (sugars k3 d10 k3, PS)	39%	
TGTCUAAACATCTCTG (sugars k3 d1 m1 d8 k3, PS)	44%	
TGTGATTGAGTTCTCC (sugars k3 d9 k3 e1, PS)	52%	
TGTGATTGAGTTCTCC (sugars k3 d10 k3, PS)	62%	target mRNA inhibition (0.02 µM): 1%; target mRNA inhibition (0.078 µM): 14%; target mRNA inhibition (0.313 µM): 20%; target mRNA inhibition (1.25 µM): 42%; target mRNA inhibition (5 µM): 70%
TGTGATTGAGTTCTCC (sugars kkdddddddddkekek, PS)	11%	
TGTGGCATGGCTACAG (sugars k3 d9 k3 e1, PS)	25%	
TGTGGCATGGCTACAG (sugars k3 d10 k3, PS)	24%	
TGTGTAGTCCTAGGGA (sugars k3 d10 k3, PS)	50%	
TGTGTTCTTGTTGATA (sugars k3 d10 k3, PS)	69%	
TGTGUTCTTGTTGATA (sugars k3 d1 m1 d8 k3, PS)	41%	
TGTTAACCTGCAGCAG (sugars k3 d10 k3, PS)	39%	
TGTTACATCACCCACT (sugars k3 d10 k3, PS)	35%	
TGTTAGGACCCAGTCT (sugars k3 d10 k3, PS)	51%	
TGTTGACCTCAAATGT (sugars k3 d10 k3, PS)	14%	
TGTTGATATTCTGTGG (sugars kkdddddddddkekek, PS)	54%	
TGTTTATGTAAGCACA (sugars k3 d10 k3, PS)	74%	
TTAAACCTTCCCTGTG (sugars k3 d9 k3 e1, PS)	18%	
TTAAACTCCAATGTGT (sugars k3 d10 k3, PS)	36%	

Sequence	target mRNA inhibition (1 µM)	other results
TTAAAGACAGGGTGGT (sugars k3 d10 k3, PS)	21%	
TTAAGATACCCAGGTT (sugars k3 d1 m1 d8 k3, PS)	30%	
TTAAGCAGAATTGTGA (sugars k3 d10 k3, PS)	7%	
TTAAGCATTGTTAGCT (sugars k3 d10 k3, PS)	16%	
TTAATCATGGGACAGG (sugars k3 d10 k3, PS)	27%	
TTAAUGCCACCCTACC (sugars k3 d1 m1 d8 k3, PS)	8%	
TTACAACCTGGTTTCA (sugars k3 d10 k3, PS)	25%	
TTACAGCATCAAGACA (sugars k3 d1 m1 d8 k3, PS)	46%	
TTACATATCAATGCCT (sugars k3 d10 k3, PS)	12%	
TTACATTACAGCCTTA (sugars k3 d10 k3, PS)	67%	target mRNA inhibition (0.02 µM): 0%; target mRNA inhibition (0.078 µM): 0%; target mRNA inhibition (0.313 µM): 19%; target mRNA inhibition (1.25 µM): 56%; target mRNA inhibition (5 µM): 80%
TTAGAGAGCGATAGAT (sugars k3 d10 k3, PS)	23%	
TTAGTATAGTTATCTT (sugars k3 d9 k3 e1, PS)	45%	
TTAGTATAGTTATCTT (sugars k3 d10 k3, PS)	37%	
TTAGUTAGAATAGTCT (sugars k3 d1 m1 d8 k3, PS)	35%	
TTATAACTACAAGAGG (sugars k3 d1 m1 d8 k3, PS)	58%	
TTATCATACCACATAC (sugars k3 d10 k3, PS)	19%	
TTATGATAATTTGGTG (sugars k3 d10 k3, PS)	0%	
TTATGTAATAGCCAGT (sugars k3 d1 m1 d8 k3, PS)	56%	
TTATGTAATAGCCAGT (sugars kkdddddddddkekek, PS)	63%	
TTATGTGATTGAGTTC (sugars k3 d1 m1 d8 k3, PS)	35%	
